In patent US20150276751A1, “REAGENT FOR IMAGING INTRACELLULAR ACETYLATION” (JAPAN SCIENCE AND TECHNOLOGY AGENCY, priority 2012, published 2015):

Key:
[1] = Absorption and fluorescence properties of the rhodamine derivative before and after acetylation; assay type: physicochemical; details: for fluorescence maximum: excitation at 550 nm; for absorption maximum / molar absorption coefficient ε at absorption maximum: in PBS (medium given for compound 3); for fluorescence quantum yield: in PBS, rhodamine B as control
Excerpt: The compound 3 (RH—NH2) obtained had the absorption maximum (ε=71400 M^−1cm^−1) at 546 nm in PBS, fluorescence maximum at 570 nm with excitation at 550 nm, and fluorescence quantum yield of 4.9×10^−4 as measured in PBS using rhodamine B as a control. The acetylated compound 4 (RH—NHAc) had the absorption maximum (ε=35500 M^−1cm^−1) at 553 nm, fluorescence maximum at 572 nm with excitation at 550 nm, and fluorescence quantum yield of 0.12.

[2] = Acetylation of compound 3 by compound 6 (acetyl-CoA analogue) with tributylphosphine in PBS; details: compound 3 1 μM, tributylphosphine 10 mM, PBS pH 7.4, 1% DMSO, 25° C., ex 550 nm, em 575 nm
Description: The compound 3 (1 μM) was mixed with tributylphosphine (10 mM) as the acylation catalyst or acylation reaction-promoting agent, the compound 6 was added 1 minute afterward, and advance of the acetylation was measured over time at 25° C. in PBS (pH 7.4, 1% DMSO) in the same manner as that of Example 2. Fluorescence of 575 nm was measured with excitation at 550 nm. […] Correlation was observed between the fluorescence intensity and the concentration of the acetylating agent 1 minute after the addition of the acetylating agent (FIG. 2).

HeLa cells [3] = experiment: Visualization of intracellular acetylation in HeLa cells by fluorescence enhancement; assay type: cell-based
Description: The acylation catalyst was added at the time point of 2 minutes, and N-methoxydiacetamide (NMD, 10 mM) was added as an acetylating agent at the time point of 7 minutes. Enhancement of the fluorescence intensity (F/F0) was calculated with an excitation wavelength of 550 nm and a fluorescence wavelength of 575 nm as an average of the results obtained from five cells. […] FIGS. 4, (c), (d), and (e) show color images of the HeLa cell after 1 minute, 5 minutes, and 10 minutes, respectively.
In view of the results of the model acetylation shown in Example 3, it is considered that enhancement of the intracellular fluorescence intensity was originated in acetylation advanced by physiological acetyl-CoA in the inside of mitochondria. […] Therefore, advance of the intracellular acetylation was successfully visualized by the compound 3 together with the physiological acetyl-CoA and the additionally added acetylating agent. It is known that the acetyl-CoA concentration in mitochondria is higher than the average intracellular acetyl-CoA concentration (J. Gen., Microbiol., 134, pp. 2249-2253, 1988), and the aforementioned results are consistent with this finding.

HeLa cells [4] = experiment: Staining and mitochondrial localization in HeLa cells (double staining with TagCFP-Mito); assay type: cell-based
Description: In order to visualize an intracellular acetylation, the following experiment was conducted by using the compound 3 as the rhodamine derivative. It is known that a positively charged rhodamine derivative structure such as tetramethylrhodamine migrates into cells and localizes in mitochondria (J. Circ. Res., 95, pp. 239-252, 2004; J. Biol. Chem., 264, pp. 8171-8178, 1989; Plos. One., 6, e23684, 2011; as especially for localization of 5-aminorhodamine derivatives in mitochondria, see, GB2283744 and U.S. Pat. No. 5,686,261). The compound 3 (10 μM) was allowed to act on the HeLa cells at 37° C. for 30 minutes in the Hanks' balanced salt solution (HBSS, 137 mM NaCl, 5.4 mM KCl, 1.3 mM CaCl2, 0.5 mM MgCl2, 0.4 mM MgSO4, 0.3 mM Na2HPO4, 0.4 mM KH2PO4, 4.2 mM NaHCO3, 5.6 mM D-glucose, 5 mM HEPES, adjusted to pH 7.4 with NaOH), the cells were washed twice with HBSS, and then fluorescence was measured.
The localization in the mitochondria of the HeLa cells was visualized by expression of TagCFP-Mito, which is a cyan fluorescent protein, and thereby confirmed. The HeLa cells were transfected with the pTagCFP-Mito vector (Evrogen) using Lipofectamine LTX (Invitrogen), and fluorescence was measured from 24 hours thereafter. The compound 3 was excited at 559 nm, and fluorescence of 580 to 680 nm was measured. TagCFP-Mito was excited at 440 nm, and fluorescence of 460 to 500 nm was measured. […]

[5] = Acetylation of compound 3 by N-methoxydiacetamide in PBS with acylation catalyst, fluorescence change over time; details: for increase in fluorescence intensity over time vs. no catalyst: PBS pH 7.4, 1% DMSO, 25° C.
Description: The compound 3 (1 μM) and an acylation catalyst or acylation reaction-promoting agent (10 mM) were dissolved in PBS (pH 7.4, containing 1% DMSO), N-methoxydiacetamide (NMD, 0.1M) was added as an acetylating agent 1 minute afterward, and change of fluorescence was measured over time at 25° C.

[6] = compound 3 1 μM, catalyst 10 mM, NMD 0.1M

Row | Structure (SMILES) | fluorescence maximum [1] | absorption maximum [1] | molar absorption coefficient ε at absorption maximum [1] | fluorescence quantum yield [1] | increase in fluorescence intensity over time vs. no catalyst [5, 6] | other results
1 | CN(C)c1ccc2c(-c3ccc(N)cc3)c3ccc(=[N+](C)C)cc-3oc2c1.O=C([O-])C(F)(F)F [compound 3, N-(9-(4-Aminophenyl)-6-(dimethylamino)-3H-xanthen-3-ylidene)-N-methylmethanaminium trifluoroacetate] | 570 nm | 546 nm | 71400 M⁻¹ cm⁻¹ | 4.9×10^−4 | – | increase of fluorescence on acetylation with compound 6 [2]: Rapid increase of fluorescence was obtained; enhancement of fluorescence intensity over time, no catalyst (HeLa cells [3]; 37° C., absence of acylation catalyst or reaction-promoting agent): enhancement of fluorescence intensity was not observed; fluorescence intensity after further adding N-methoxydiacetamide (HeLa cells [3]; NMD 10 mM added at 7 minutes, after tributylphosphine 5 mM): the fluorescence intensity was further enhanced; enhancement of intracellular fluorescence intensity with tributylphosphine (HeLa cells [3]; compound 3 10 μM, tributylphosphine 5 mM added to medium, 37° C.): enhancement of intracellular fluorescence intensity was observed; intracellular localization (staining image) (HeLa cells [4]; 10 μM, 37° C., 30 minutes, HBSS): localization of the compound in the mitochondria; consistency of fluorescence image with TagCFP-Mito image (HeLa cells [4]; ex 559 nm, em 580 to 680 nm, HeLa cells transfected with pTagCFP-Mito): well consistent with the fluorescence image of the cyan fluorescence protein expressed in the mitochondria
2 | CC(=O)Nc1ccc(-c2c3ccc(=[N+](C)C)cc-3oc3cc(N(C)C)ccc23)cc1.CC(=O)[O-] [compound 4, N-(9-(4-Acetamidophenyl)-6-(dimethylamino)-3H-xanthen-3-ylidene)-N-methylmethanaminium acetate] | 572 nm | 553 nm | 35500 M⁻¹ cm⁻¹ | 0.12 | – | –
3 | CN(C)c1ccncc1 [dimethylaminopyridine] | – | – | – | – | larger increase in fluorescence intensity was observed over time | –
4 | CCCCP(CCCC)CCCC [tributylphosphine] | – | – | – | – | larger increase in fluorescence intensity was observed over time | fluorescence intensity relative to that without addition of catalyst ([5]; 5 minutes after addition, compound 3 1 μM, catalyst 10 mM, NMD 0.1M, PBS pH 7.4, 25° C.): about 5 times; increase in reaction rate relative to reaction without catalyst ([5]; compared with rate at start of reaction without catalyst): about 5.5 times
